How the values were obtained:
Lck = Lck (Homo sapiens, UniProt P06239); conditions: reported in [51]; cited from earlier work
[1] = test system: IL-2 production in hPBL T-cells; assay: T-cell activation: TCR-induced IL-2 secretion (ELISA); assay type: cell-based; conditions: human T-cell cultures, anti-CD3/anti-CD28 stimulation, 20 hours, FIG. 7B; read-out: IC50 inhibition of IL-2 production
Procedure: T-cell activation. Whole blood was obtained from normal donors and human peripheral blood lymphocytes (hPBL) were isolated by ficol-hypaque density centrifugation. T-cells were then purified from the hPBL by negative selection using an R&D column following the manufacturers directions (R&D Systems, Minneapolis, Minn.). A 96-well flat-bottomed plate was coated with 10 μg/ml of goat anti-mouse (GAM)-IgG1 (Caltag, Burlingame, Calif.) in PBS overnight at 4C. The GAM-coated plate was flicked out and anti-CD3 mAb (UCHT-1, Coulter/Immunotech, Miami, Fla.) is added at 0.2 μg/ml in AIMV medium (Gibco, Grand Island, N.Y.) for 3 hr. at 37C. Purified T-cells were pre-incubated at 1×10^5/well in AIM V with or without compound for 30 minutes then transferred to the anti-CD3 capture plate. Finally, anti-CD28 (Pharmingen, San Diego, Calif.) in AIMV (150 ng/ml final) was added to each well. Cells were incubated for 20 hours at 37C in 5% CO2 then supernatants were tested by ELISA for cytokine levels (Endogen, Woburn, Mass.).

[2] = test system: TCR ζ-chain (p23) and 70 kD protein phosphorylation in Jurkat cells; assay type: cell-based; conditions: TCR-induced phosphotyrosine, western blot, FIG. 7C
Procedure: Phosphotyrosine western blotting. […] Cells were then transferred to 37° C. water bath for 1 minute. Stimulation was stopped by the addition of 5 volumes of cold PBS containing 200 μM sodium orthovanadate. Cells were spun down and lysed in 150 mM Tris/10 mM HEPES buffer, pH 7.3, containing 1% Triton X-100 and Complete protease inhibitor cocktail (Boehringer Mannheim, Germany) for 30 minutes on ice. […] Blots were probed with anti-phosphotyrosine (4G10, Upstate Biotechnology, Inc., Saranac Lake, N.Y.) and developed using ECL-plus following the manufacturers directions (Amersham, Arlington Heights, Ill.).

ZAP-70 = biological target: T1, ZAP-70 (Homo sapiens, UniProt P43403); conditions: reported in [51]; cited from earlier work
T1 sequence (P43403 1-619): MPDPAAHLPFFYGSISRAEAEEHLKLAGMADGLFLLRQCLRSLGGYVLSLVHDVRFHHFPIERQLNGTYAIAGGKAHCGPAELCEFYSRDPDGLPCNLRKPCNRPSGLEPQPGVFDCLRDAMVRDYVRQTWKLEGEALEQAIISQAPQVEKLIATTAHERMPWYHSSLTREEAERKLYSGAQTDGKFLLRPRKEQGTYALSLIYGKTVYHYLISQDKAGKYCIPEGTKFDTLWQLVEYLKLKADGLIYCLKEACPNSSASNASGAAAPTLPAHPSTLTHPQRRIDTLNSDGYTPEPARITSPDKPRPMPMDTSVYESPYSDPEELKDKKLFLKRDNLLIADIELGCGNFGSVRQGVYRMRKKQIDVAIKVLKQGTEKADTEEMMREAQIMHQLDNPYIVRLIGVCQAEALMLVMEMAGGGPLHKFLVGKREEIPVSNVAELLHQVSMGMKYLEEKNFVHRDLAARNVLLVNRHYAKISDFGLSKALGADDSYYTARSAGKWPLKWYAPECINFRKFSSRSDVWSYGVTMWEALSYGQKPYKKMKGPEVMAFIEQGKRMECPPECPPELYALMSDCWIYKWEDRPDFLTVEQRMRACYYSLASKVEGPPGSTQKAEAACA

Lck, sequence (P06239 whole entry, species assumed): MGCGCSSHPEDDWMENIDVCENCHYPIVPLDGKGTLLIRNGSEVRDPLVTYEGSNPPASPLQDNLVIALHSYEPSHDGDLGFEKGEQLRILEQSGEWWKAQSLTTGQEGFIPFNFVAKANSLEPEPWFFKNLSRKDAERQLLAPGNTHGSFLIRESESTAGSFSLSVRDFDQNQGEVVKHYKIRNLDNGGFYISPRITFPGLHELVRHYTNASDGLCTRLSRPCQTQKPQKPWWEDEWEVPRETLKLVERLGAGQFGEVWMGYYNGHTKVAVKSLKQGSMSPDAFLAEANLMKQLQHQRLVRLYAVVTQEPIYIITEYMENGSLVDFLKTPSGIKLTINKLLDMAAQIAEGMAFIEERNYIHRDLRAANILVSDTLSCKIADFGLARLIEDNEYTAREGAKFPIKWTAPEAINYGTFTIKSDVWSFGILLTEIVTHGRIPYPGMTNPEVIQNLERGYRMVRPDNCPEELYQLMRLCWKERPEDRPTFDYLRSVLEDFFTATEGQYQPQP

Row | Compound | inhibitory activity against Lck compared with PP2 (Lck) | IC50 [1] | inhibition of Lck-dependent phosphorylation of the TCR ζ-chain (p23) [2] | inhibition of phosphorylation of a 70 kD protein (likely ZAP-70) [2] | IC50 (ZAP-70)
1 | Cc1ccc(-c2nn(C(C)(C)C)c3ncnc(N)c23)cc1 [PP1] | approximately the same inhibitory activity against Lck | – | – | – | –
2 | CN[C@@H]1C[C@H]2O[C@@](C)([C@@H]1OC)n1c3ccccc3c3c4c(c5c6ccccc6n2c5c31)C(=O)NC4 [staurosporine] | – | 60 nM | – | – | –
3 | CC(C)(C)n1nc(-c2ccc(Cl)cc2)c2c(N)ncnc21 [PP2] | – | 600 nM | dose-dependent inhibition | inhibited the phosphorylation of a 70 kD protein | ≥ 100000 nM

From patent US20040204863A1, “Crystal of a kinase-ligand complex and methods of use” (priority 1999, published 2004)
